# Source: patent publication US3954726A, “Double salts of S-adenosil-L-methionine” (Bioresearch Limited, priority 1973, dated 1976)
# Counter-ions that a name gives are not always drawn. Like-named read-outs stand apart in the source and are kept apart here.
# Legend:
# [1] = Hepatic phospholipids in rats after intoxication with CCl4; format: in vivo, rat; settings: for Total phospholipids: average ± E.S. of 10 values
# Excerpt: This was confirmed by successive pharmacological tests. […] Hepatic phospholipids in rats after intoxication with CCl4 and treatment with SAM.
# [2] = dry state
# Description: (§3) The figures refer to the percentage of SAM residue after the times indicated:
# [3] = Clinical: Parkinsons disease and Parkinsonisms, in association with Levodopa; format: in vivo, human
# [4] = Toxicity, overall statement; settings: in vivo
# [5] = Acute toxicity (DL50) in the mouse; settings: in vivo
# Excerpt: In particular, the DL50 in the mouse is greater than 6 g/kg/os and 2.5 g/kg/i.p.
# [6] = Hepatic steatosis in rats (Handler diet, acute alcoholic intoxication, carbon tetrachloride, bromobenzene); format: in vivo, rat
# Excerpt: This was confirmed by successive pharmacological tests.
# [7] = Clinical: arteriosclerosis, hypoxydotic states, post-apoplectic syndromes; format: in vivo, human
# cat = settings: in vivo, 40 mg/kg
# [8] = Clinical: disturbances of the sleeping-waking rhythm; format: in vivo, human; settings: 10-30 mg orally, insomnia
# [9] = Clinical: hypoprotidemias, disprotidemias, hepatopathias, cyrrotic states, malabsorption; format: in vivo, human; settings: 20-200 mg per day
# Description: 2. Hundreds of subjects were treated clinically affected with: secondary hypoprotidemias and disprotidemias; persistent and aggressive cronic hepatopathias; precyrrotic and cyrrotic states; malabsorption syndromes, protide dispersing syndromes.
# rats = settings: rat, in vivo
# physchem [10] = settings: dry state, percentage of SAM residue
# Description: as §3
# [11] = mouse, in vivo
# Description: (§1) Sam^+.hso4^-.h2 so4 .2 ch3 c6 h4 so3 h and/or SAM^+.HSO4^-.H2 SO4.CH3 C6 H4 SO3 H. In order to indicatively determine how SAM is distributed in the tissues, S-Adenosilmethionine (Methyl C^14) was prepared. The distribution of this product in rats was studied by administering a dose of 10 mg/kg/e.v. equal to 24 μci of radioactive product. The specific activity of the product was 58 mCi/m moles. Parallel to this, an autoradiographic study was made on the mouse.
# [12] = Edema by egg white (acute inflammation); format: in vivo; settings: orally 20-100 mg/kg and parenterally 10-20 mg/kg
# Excerpt: (§2) Ot the various tests we shall mention the most classic, namely the edema by carragenine and by egg white as a test for acute inflammation; and granuloma by cotton […] arthritis by adjuvant as a test for chronic inflammation. […] The analgesia tests were in the form of the hot plate tests and stretching by acetic acid, and the Randal and Drlitto tests in the rat.
# [13] = Clinical: antalgic activity in neurological frameworks and cephalalgia; format: in vivo, human
# Description: The antalgic activity of SAM was also tested in different subjects with different neurological frameworks: neuritis, polyneuritis, anthralgia, sciatica, radiocolitis, torticollis.
# [14] = Hepatic cholesterol degeneration in the rat (Ridout diet); format: in vivo; settings: 3 weeks; for Fresh liver weight: cholesterol diet
# Description: In studying the hepatoprotective activity we have used an experimental device which produces in the rat the so-called hepatic cholesterol degeneration (Ridout and Coll., Biochem. J. 52, 99, 1952).
# In this method, by means of a suitable diet, a conspicuous increase in the total hepatic fats and hepatic cholesterol are obtained in the animals. The substances which act in the lipidic metabolism reduce or annul this increase.
# The animals were divided into six groups. The first group was administered with a diet which was varied at will. The second group was administered with the basic diet of Ridout (20 g per rat per day); the other groups were administered with the same diet in the same doses but enriched with cholesterol to the extent of 0.2 g/rat/day. The treatment lasted 3 weeks.
# The groups 4,5,6 were administered with SAM in the following doses: 1,2,5 mg/kg/i.p. per day.
# At the end of 3 weeks all the animals were killed, the livers were withdrawn and the total fats (Best and Coll., Biochem. J. 40, 368, […]) and cholesterol (Sperry and Brand, J. Biol. Chem. 150, 315, 1943) were determined.
# man = assay: Tolerability in young volunteer healthy subjects (pressure, pulse, respiration, ECG, hemopoietic, hepatic and renal); format: in vivo
# [15] = Arthritis by adjuvant (chronic inflammation); format: in vivo; settings: orally 20-100 mg/kg and parenterally 10-20 mg/kg
# Excerpt: as §2
# rabbit [16] = assay: Local tolerability of intermuscular and intravenous injection; format: in vivo
# [17] = Granuloma by cotton peelets (chronic inflammation); format: in vivo; settings: orally 20-100 mg/kg and parenterally 10-20 mg/kg
# Excerpt: as §2
# rabbits = settings: rabbit, in vivo
# [18] = Hot plate test (analgesia); settings: rat, in vivo
# Excerpt: as §2
# [19] = Clinical: depressive forms (tests of Hamilton and Wittenberg); format: in vivo, human; settings: 20-50 mg 3-4 times per day, 5-15 days, no other therapy
# [20] = format: in vivo, human
# [21] = Stretching by acetic acid (analgesia); settings: rat, in vivo
# Excerpt: as §2
# [22] = Clinical: metabolism of lipids (hepatosteatosis, hyperdislipidemia); format: in vivo, human
# Excerpt: Following the information gained from the pharmacological tests, the clinical tests were orientated on morbid affections in which the following appear primitively or secondarily altered: […]
# [23] = Hexobarbital sleeping time in mice; format: in vivo, mouse
# Description: A further aspect considered by us was the possible action of SAM on the sleeping time by barbiturates. For this purpose an experiment was made in which groups of mice received hexobarbital in a dose of 80 mg/kg/i.p. in accordance with the method of Holten and Larsen (Acta Pharmacol. […] (table).
# [24] = Randal and Drlitto test (analgesia); format: in vivo; settings: rat
# Excerpt: as §2
# rabbit [25] = settings: in vivo, 40 mg/kg
# [26] = Edema by carragenine (acute inflammation); format: in vivo; settings: orally 20-100 mg/kg and parenterally 10-20 mg/kg
# Excerpt: as §2
# [27] = rat, in vivo, 10 mg/kg
# Description: as §1
# Distribution of SAM in some rat tissues.
# The values are expressed as μgr/gr.
# physchem [28] = format: physicochemical
# [29] = Stability with time at 45°C, dry state (percentage of SAM residue); settings: same conditions as Table 1
# Description: as §3
# [30] = intermuscular, intravenous or oral
# [31] = hyperdislipidemia in the uncompensated stage
smiles,measurement,setting,value
"C[S+](CC[C@H](N)C(=O)[O-])C[C@H]1O[C@@H](n2cnc3c(N)ncnc32)[C@H](O)[C@@H]1O (stereo partly drawn) [Ad-Met, reference compound]",Total phospholipids,[1]; CCl4 + Ad-Met 15 mg/kg/i.p.,19.9 ± 0.92 mg/g
C[S+](CC[C@H](N)C(=O)O)C[C@H]1O[C@@H](n2cnc3c(N)ncnc32)[C@H](O)[C@@H]1O (stereo partly drawn) [Chloride],percentage of SAM residue,[2]; 720 h,20%
"N[C@@H](Cc1ccc(O)c(O)c1)C(=O)O [Levodopa, reference compound]",Parkinson tremor,[3]; Levodopa alone,cannot be modified
C[S+](CC[C@H](N)C(=O)O)C[C@H]1O[C@@H](n2cnc3c(N)ncnc32)[C@H](O)[C@@H]1O (stereo partly drawn) [SAM salt],toxicity,[4],"absolutely free from acute toxicity, chronic toxicity, local intolerance or secondary effects"
same,LD50,[5]; ip,> 2500 mg/kg
same,LD50,"[5]; po, os",> 6000 mg/kg
"C[S+](CC[C@H](N)C(=O)O)C[C@H]1O[C@@H](n2cnc3c(N)ncnc32)[C@H](O)[C@@H]1O (stereo partly drawn) [SAM, SAM disulphate di-p-toluenesulphonate]",percentage of SAM residue,[2]; 720 h,100.1%
same,percentage of SAM residue,[2]; 1440 h,99.9%
same,accumulation of lipids at the hepatocite level,[6],significantly reduced the accumulation of lipids
same,recovery of functions in clear hypoxydotic states,[7]; hypoxydotic states,very quick and statistically significant
same,symptomatology of arteriosclerosis,"[7]; intramuscular, intravenous or phleboclysis, 20-40 mg 3-4 times per day",very favourable modification of the sumptomatology
same,improvement of the clinical framework in post-apoplectic syndromes,[7]; post-apoplectic syndromes,greater rapidity was found in the improvement of the clinical framework
same,"change in carotid pressure, cardiac and respiratory frequency or electrocardiac trace",cat,does not cause any change
same,altered sleeping-waking ratios,[8],considerably improve
same,subjective symptomology and general objective conditions,[9],often very important improvement
same,tests of hepatic functionality,[9],normalizing of all the tests of hepatic functionality
same,albumin amount,[9]; [30],an increase in the albumin amount
same,altered percentage ratios between the electrophoretic fractions of the serum,[9]; [30],tendency to normalise
same,total protidemia,[9]; [30],statistically significant increase
same,tetratogenic actions or malformations,rats,no tetratogenic actions were encountered or any malformations in the embryons or terminal feti
same,remaining at 2880 h,physchem [10],100%
same,remaining at 4320 h,physchem [10],100%
same,Parkinson tremor,[3]; 10-40 mg per day with Levodopa,favourable modifications
same,akinesia and rigidity,"[3]; 10-40 mg per day with Levodopa, versus Levodopa only",statistically more significant improvement
same,Levodopa side effects,"[3]; 10-40 mg per day with Levodopa, nausea, vomit, inappetite, hypotension, asthenia, cephalea, hypersudoration, insomnia",significantly blocks
same,Levodopa-dependent psychic disturbances,[3]; with Levodopa,distinctly improves
same,distribution to the tissues,[11],distributed very rapidly to all the tissues
same,"antiinflammatory activity, edema by egg white",[12],active
same,antalgic effect in neurological frameworks,[13]; 15 mg twice a day intermuscular or 30-50 mg 3-4 times per day orally,available and efficient from the first day of administration
same,recurring and resistant cephalalgia,[13]; orally in masticable tablets,Analogous results
same,protection from hepatic cholesterol degeneration,[14]; 5 mg/kg,completely protected
same,protection from hepatic cholesterol degeneration,[14]; 1-2 mg/kg/i.p.,poorly protected
same,Fresh liver weight,"[14]; Batch IV, SAM 1 mg/kg/i.p. per day",17 g
same,Fresh liver weight,"[14]; Batch V, SAM 2 mg/kg/i.p. per day",16 g
same,Fresh liver weight,"[14]; Batch VI, SAM 5 mg/kg/i.p. per day",16 g
same,"electrocardiograph trace (PQ interval, ST section, extrasistol)","man; 30"" to 20' from administration",does not show any variations
same,"hemopoietic apparatus, hepatic and renal operation",man; man,no variations which were statistically significant from normal
same,"minimum and maximum pressure, pulse and respiratory frequency","man; rapid intravenous or phleboclysis, 10-300 mg, 1 minute to 24 hours",does not show any variation from normal values
same,"antiinflammatory activity, arthritis by adjuvant",[15],active
same,local tolerability,"rabbit [16]; intermuscular injection, repeated over 180 days",excellent
same,local tolerability,"rabbit [16]; intravenous, marginal vein of the auricular pavillon, rabbit",excellent
same,"antiinflammatory activity, granuloma by cotton peelets",[17],active
same,tetratogenic actions or malformations,rabbits,no tetratogenic actions were encountered or any malformations in the embryons or terminal feti
same,"analgesic activity, hot plate",[18],active
same,remission of the main parameters for the diagnosis of depressive forms,[19],significant remission
same,activity in osteoarthritic forms,"[20]; 30 mg twice a day i.m. or i.v., and 30-50 mg orally 4 times per day",active in all osteoarthritic forms treated
same,"muscular spasm, limitation of movement, localised pain, rigidity","[20]; after 7 days of treatment, versus placebo",influenced in a statistically significant manner
same,therapeutic efficiency compared with indomethacin,[20]; double blind study,equal to indomethacin
same,concealed blood in the feces,"[20]; human, in vivo",never showed any modification
same,gastric pyrosis,"[20]; human, in vivo",No case
same,"analgesic activity, stretching by acetic acid",[21],active
same,hypocholesterolemising and hypolipemising action,[22]; about 20-30 mg administered 2-3 times per day,proportional to the dose
same,hepatic lipids in hepatosteatosis,"[22]; bioptic examination, even after 60 days from the end of treatment",rapid fall in the hepatic lipids
same,altered β/α lipoproteic ratios,[22]; [31],normalises the altered β/α lipoproteic ratios
same,total cholesterolemia and hypertriglyceridemia,[22]; [31],marked fall
same,prolonging the sleeping time induced by hexobarbital,[23]; 10 mg/kg/i.p.,active in prolonging the sleeping time
same,Sleeping time,"[23]; SAM 10 mg/kg/i.p., hexobarbital 80 mg/kg/i.p.",41.2 ± 5.8 min
same,"analgesic activity, Randal and Drlitto test",[24],active
same,"change in carotid pressure, cardiac and respiratory frequency or electrocardiac trace",rabbit [25],does not cause any change
same,Total phospholipids,[1]; CCl4 + SAM 15 mg/kg/i.p.,27.20 ± 1.25 mg/g
same,Total phospholipids,[1]; CCl4 + SAM 150 mg/kg/i.p.,20.87 ± 0.42 mg/g
same,levels of phospholipids reduced after intoxication with CCl4,"[1]; rats, CCl4",favours the restoration of normal levels of phospholipids
same,"antiinflammatory activity, edema by carragenine",[26],active
same,distribution to the tissues,[27],distributed very rapidly to all the tissues
same,hygroscopicity,physchem [28]; crystalline salt,not very hygroscopic
same,solubility,physchem [28]; water,> 200 mg/mL
C[S+](CC[C@H](N)C(=O)O)C[C@H]1O[C@@H](n2cnc3c(N)ncnc32)[C@H](O)[C@@H]1O (stereo partly drawn) [Sulphate],percentage of SAM residue,[2]; 720 h,50%
same,percentage of SAM residue,[2]; 1440 h,5%
C[S+](CC[C@H](N)C(=O)O)C[C@H]1O[C@@H](n2cnc3c(N)ncnc32)[C@H](O)[C@@H]1O.Cc1ccc(S(=O)(=O)O)cc1.O=S(=O)(O)O.O=S(=O)([O-])O (stereo partly drawn) [di-sulphate mono-p.toluenesulphonate],stability values compared with di-sulphate di-p.toluenesulphonate,[29],completely equivalent
